Reference: patent US20230210834A1, “RNA METHYLTRANSFERASE INHIBITOR, SCREENING METHOD THEREFOR, ANTI-CANCER AGENT EFFICACY ASSESSMENT MARKER, AND KIT FOR EFFECTIVELY PREDICTING FTSJ1 INHIBITOR” (National University Corporation Okayama University, priority 2019, published 2023)

What was measured:
FTSJ1 = target: T1, FTSJ1 (Homo sapiens, UniProt Q9UET6); assay: Screening test: FLAG-FTSJ1 transmethylation of total RNA, SAM to SAH conversion measured with MTase-Glo luminescence; type: biochemical; settings: 10 ng/reaction FLAG-FTSJ1, 1,000 ng/reaction total RNA, different concentrations; FIG. 3B
T1 construct: made in house; host or cells: HEK293 cells stably expressing FLAG-tagged FTSJ1
T1 sequence (Q9UET6 1-329): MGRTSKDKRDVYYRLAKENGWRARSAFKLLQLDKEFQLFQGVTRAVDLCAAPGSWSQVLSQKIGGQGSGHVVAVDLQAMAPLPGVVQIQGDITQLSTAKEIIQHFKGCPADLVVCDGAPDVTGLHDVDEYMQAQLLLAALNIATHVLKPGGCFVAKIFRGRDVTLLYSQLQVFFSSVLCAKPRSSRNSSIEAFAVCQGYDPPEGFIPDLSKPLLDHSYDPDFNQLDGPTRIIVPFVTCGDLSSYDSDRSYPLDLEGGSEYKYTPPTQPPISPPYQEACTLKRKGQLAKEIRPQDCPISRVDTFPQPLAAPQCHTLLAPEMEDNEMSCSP
Protocol: HEK293 human embryonic kidney cells that constantly express FLAG-tagged FTSJ1 were produced, and from its cell lysate, FLAG-FTSJ1 was separated by adsorption using an anti-FLAG M2 antibody affinity gel (Sigma-Aldrich Co. LLC, catalog number: A2220-10ML), and eluted with FLAG peptide (Sigma-Aldrich Co. LLC, catalog number: F3290-25MG). After measuring the protein concentration in the eluate, serial dilutions were performed within the range of 0 to 20 ng/reaction to obtain enzyme dilutions of 12 different concentrations. Further, the total RNA was extracted from HEK293-FTSJ1-KO cells, in which FTSJ1 was knocked out, using TRIzol Reagent (Thermo Fisher Scientific Inc., catalog number: 15596018). […] The conversion reaction from SAM (s-adenosyl methionine) to SAH (s-adenosyl homocysteine), which occurred when FLAG-FTSJ1 in each dilution methylated 1,000 ng/reaction of the total RNA, was measured as a luciferase luminescence value using MTase-Glo Reagent in the assay kit. Taking the luminescence value at the time when FLAG-FTSJ1 was 0 ng as a background value, a graph was drawn using the numerical values obtained by subtracting the background value from the luminescence value at each dilution step. […]

[1] = system: polyglutamine luciferase reporter; assay: Screening: polyglutamine luciferase reporter assay in NUGC3 cells (luminescence % of DMSO); type: cell-based, human; settings: NUGC3 cells, luminescence relative to DMSO

SMILES: CC(C)c1cc(C(C)C)c(S(=O)(=O)CC2CC(C)(C)CC(C)(C)C2)c(C(C)C)c1 [PVZF2001]
- inhibitory effect of transmethylation by FTSJ1 (luminescence value) (FTSJ1): a decrease in the luminescence value was observed in a concentration-dependent manner
- Polyglutamine ([1]; 5 μM): 41.05%
- Polyglutamine ([1]; 10 μM): 19.01%
